# Data: the NIST ThermoML archive (doi:10.1016/j.jct.2016.01.028)
# Numbers after ± are expanded uncertainties.
# Conditions: 102 kPa, Liquid, Frequency=5 MHz, Single path-length method
speed of sound (293.15 K) [m/s],speed of sound (298.15 K) [m/s],speed of sound (303.15 K) [m/s],speed of sound (308.15 K) [m/s],speed of sound (313.15 K) [m/s],speed of sound (318.15 K) [m/s],speed of sound (323.15 K) [m/s],speed of sound (328.15 K) [m/s],speed of sound (333.15 K) [m/s],speed of sound (338.15 K) [m/s],speed of sound (343.15 K) [m/s],Structure (SMILES)
1537 ± 2.6,1516.3 ± 2.6,1503.7 ± 2.6,1486.5 ± 2.6,1471 ± 2.6,1457 ± 2.6,1440 ± 2.6,1424.6 ± 2.6,1412.8 ± 2.6,1397.1 ± 2.6,1381.9 ± 2.6,CCCCC(=O)[O-].C[NH2+]CCO [2-hydroxy-N-methylethanaminium pentanoate]
1576.8 ± 2.6,1562.9 ± 2.6,1548 ± 2.6,1529.7 ± 2.6,1511.9 ± 2.6,1499.4 ± 2.6,1481.3 ± 2.6,1467.2 ± 2.6,1451.2 ± 2.6,1436.7 ± 2.6,1419.4 ± 2.6,CCCC(=O)[O-].C[NH2+]CCO [N-methyl-2-hydroxyethylammonium butanoate]
